Measurements from patent publication US7655677B2, “Composition and method for controlling house insect pest” (priority 2002, dated 2010).

Key:
Type in all cases: in vivo
Reticulitermes speratus [1] = test: Test Example 16: pulp (KIMUTAORU) poison bait, termite mortality after 18 days; details: pulp (KIMUTAORU) bait 0.1%
Excerpt: Fresh pulp (2 cm×2 cm×0.1 cm) was immersed in a methanol solution of a sample compound. Then, it was dried to obtain a fresh pulp poison bait chemical containing 0.1% of the sample compound. This poison bait chemical was placed in a cylindrical cup made of acrylic resin (i.e. a cup having a hole with a diameter of 10 mm formed in the bottom and having hard plaster (Dental Stone) set at the bottom in a thickness of 10 mm), and 20 termite workers (Reticulitermes speratus) were released thereon. The cup was placed in a container having wet cotton laid over the bottom, and the container was maintained at room temperature of 25° C. for 18 days, whereupon the number of dead termites in the cup was examined, and the mortality was calculated.
A test was carried out in the same manner as the above Test Example 15 except that fresh pulp was changed to pulp (KIMUTAORU, tradename, manufactured by CRECIA Co.).

Lasius japonicus [2] = test: Test Example 22: cotton ball with compound in 10% cane sugar solution, ant mortality
Experimental: 10 Ants (Lasius japonicus) were put into a test tube together with a cotton ball impregnated with 0.5 ml of a solution containing a sample compound in a predetermined concentration and containing 10% of cane sugar. […]

Reticulitermes speratus [3] = test: Test Example 21: treated sandy soil with weather resistance operation, termite mortality; details: 1000 ppm
Experimental: Sandy soil passed through a sieve of 20 mesh was dried at a temperature of 60° C. to a constant weight, and 12 g of the soil thus obtained, was packed into a cup having a diameter of 60 mm. 3 ml of a pesticide solution adjusted to a predetermined concentration, was added and sufficiently mixed, whereupon it was maintained in a constant temperature chamber of 40° C. for 95 days to carry out the weather resistance operation. After the weather resistance operation, 10 termite workers (Reticulitermes speratus) were released on this test soil. The cup was placed in a container having wet cotton laid over the bottom, and the container was maintained at room temperature of 25° C. 2 Days later and 6 days later after releasing the termites, the number of dead termites in the cup was examined, and the mortality was calculated.

Coptotermes formosanus = test: Test Example 18: dust-coated termite workers mixed with non-treated termites, mortality with time; details: 0.5% dust; for Mortality TS (Termite soldiers): 10 non-treated soldiers; for Mortality TW (Termite workers): 15 treated + 10 non-treated workers
Experimental: 1 mg of each dust prepared in the same manner as in Test Example 17, was uniformly dispersed in a small size glass Petri dish with a diameter of 45 mm, and 15 termite workers (Coptotermes formosanus) were released and treated for dust coating. The treated termite workers were put into a cylindrical cup made of acrylic resin (i.e. a cup having a hole with a diameter of 10 mm formed in the bottom and having hard plaster (Dental Stone) set at the bottom in a thickness of 10 mm) containing a bait log, together with 10 non-treated termite workers and 10 non-treated termite soldiers. The cup was placed in a container having wet cotton laid over the bottom, and the container was maintained at room temperature of 25° C., whereby the number of dead termites in the cup was examined as the time passed, and the mortality was calculated by the following formula.
Mortality of termite workers (%)=(Number of dead termite workers/15 treated termite workers+10 non-treated termite workers)×100
Mortality of termite soldiers (%) (Number of dead termite soldiers/10 non-treated termite soldiers)×100

Lasius japonicus [4] = test: Test Example 23: skim milk poison bait placed near ant nest, number of ants passing the gate per minute; details: 0.2% (W/W) bait, ants through the gate per minute
Excerpt: 2 g of this poison bait chemical was placed directly on an optional ground surface distanced by about 50 cm from the gate of the ant nest. Before, 2 days after, 3 days after and 5 days after placing the poison bait chemical, the number of ants going out and coming in through the gate per minute was examined.

Reticulitermes speratus [5] = test: Test Example 9: treated filter paper in acrylic cup, termite mortality 5 and 20 days later; details: 1000 ppm
Experimental: A filter paper having a diameter of 80 mm was placed in a cylindrical cup made of acrylic resin having a diameter of 80 mm and a height of 60 mm (i.e. a cup having a hole with a diameter of 10 mm formed in the bottom and having hard plaster (Dental Stone) set at the bottom in a thickness of 10 mm), and 1 ml of a solution containing a sample compound in a predetermined concentration, was dropped thereon. Then, ten termite workers and one termite soldier (Reticulitermes speratus) were released thereon. The cup was placed in a container having wet cotton laid over the bottom, and the container was maintained at room temperature of 25° C., and 5 days later and 20 days later, the mortality of termites in the cup was examined.

Priplaneta americana = test: Test Example 12: mouse feed poison bait, mortality with time; details: bait 1%
Experimental: 1 g of feeding stuff for mice was treated with 0.5 ml of an acetone solution containing 10 mg of a sample compound and put in a constant temperature chamber at 40° C. for 20 hours to sufficiently evaporate acetone, whereby a poison bait chemical containing 1% of the sample compound was prepared. Then, this poison bait chemical was put into a cup together with a wet cotton, and 10 […] (Priplaneta americana) were released and kept at 25° C. in a breeding room, whereby the mortality was examined as the time passed.

[6] = weather resistance operation Negative, 2 Days later
[7] = weather resistance operation Positive (40° C. for 95 days), 2 Days later

Compound `CC(=NN=C(Cc1ccc(C(F)(F)F)cc1)c1ccc(F)cc1)N(C)C` [Compound No. II-2, [4′-fluoro-2-(4-trifluoromethylphenyl)acetophenone]N′-[1-(dimethylamino)ethylidene]hydrazone] has a Mortality (Reticulitermes speratus [1]) of 100%, a Mortality (Lasius japonicus [2]; 10 ppm, 1 Day later) of 0% and a Mortality (Lasius japonicus [2]; 10 ppm, 2 Days later) of 0%. The abnormal ratio (Lasius japonicus [2]; 10 ppm, 2 Days later) was 20%, the Mortality (Lasius japonicus [2]; 10 ppm, 3 Days later) was 40% and the Mortality (Lasius japonicus [2]; 10 ppm, 8 Days later) was 80%. The Mortality (Lasius japonicus [2]; 10 ppm, 11 Days later) was 100%, the Mortality (Lasius japonicus [2]; 50 ppm, 1 Day later) was 30% and the abnormal ratio (Lasius japonicus [2]; 50 ppm, 1 Day later) was 70%. For the same compound, the Mortality (Lasius japonicus [2]; 50 ppm, 2 Days later) was 100%, the Mortality (Lasius japonicus [2]; 50 ppm, 3 Days later) was 100% and the Mortality (Lasius japonicus [2]; 50 ppm, 8 Days later) was 100%. The Mortality (Lasius japonicus [2]; 50 ppm, 11 Days later) was 100%, the Mortality (Reticulitermes speratus [3]; [6]) was 50 (50) % and the abnormal ratio (Reticulitermes speratus [3]; [6]) was 50 (50) %. The Mortality (Reticulitermes speratus [3]; weather resistance operation Negative, 6 Days later) was 100%, the Mortality (Reticulitermes speratus [3]; [7]) was 10% and the abnormal ratio (Reticulitermes speratus [3]; [7]) was 15%. The Mortality (Reticulitermes speratus [3]; weather resistance operation Positive (40° C. for 95 days), 6 Days later) was 95%, the “Mortality TS (Termite soldiers)” value (Coptotermes formosanus; 1 Day later) was 0% and the “Mortality TW (Termite workers)” value (Coptotermes formosanus; 1 Day later) was 0%. For the same compound, the “Mortality TS (Termite soldiers)” value (Coptotermes formosanus; 8 Days later) was 0%, the “Mortality TW (Termite workers)” value (Coptotermes formosanus; 8 Days later) was 4% and the “Mortality TS (Termite soldiers)” value (Coptotermes formosanus; 15 Days later) was 40%. The “Mortality TW (Termite workers)” value (Coptotermes formosanus; 15 Days later) was 52%, the “Mortality TS (Termite soldiers)” value (Coptotermes formosanus; 19 Days later) was 100% and the “Mortality TW (Termite workers)” value (Coptotermes formosanus; 19 Days later) was 100%. For the same compound, the “Ants passing the nest gate per minute” value (Lasius japonicus [4]; 2 Days later) was 11, the “Ants passing the nest gate per minute” value (Lasius japonicus [4]; 3 Days later) was 3 and the “Ants passing the nest gate per minute” value (Lasius japonicus [4]; 5 Days later) was 0. The “Ants passing the nest gate per minute” value (Lasius japonicus [4]; Before placing poison bait chemical) was 153, the Mortality (Reticulitermes speratus [5]; 5 Days later) was 100% and the Mortality (Reticulitermes speratus [5]; 20 Days later) was 100%. It also gave a Mortality (Priplaneta americana; 1 Day later) of 0%, a Mortality (Priplaneta americana; 8 Days later) of 0% and a Mortality (Priplaneta americana; 48 Days later) of 30%.
